Data taken from patent US20030134901A1, “Lipoxin compounds and their use in treating cell proliferative disorders” (priority 1993, published 2003).
One block for each molecule: values may come before it.

Assays:
15-PGDH = target: T1, 15-PGDH (Homo sapiens, UniProt P15428); conditions: 15-PGDH of HL-60 cells (Agins et al. 1987); cited from earlier work
T1 construct: 100,000 g supernatants prepared from PMA-treated HL-60 cells converted 15-HETE to 15-oxo-ETE; endogenous in cells; host or cells: HL-60 cells treated with PMA (16 nM, 24-72 h); freeze-thaw lysate, 100,000 g supernatant
T1 sequence (P15428 1-266): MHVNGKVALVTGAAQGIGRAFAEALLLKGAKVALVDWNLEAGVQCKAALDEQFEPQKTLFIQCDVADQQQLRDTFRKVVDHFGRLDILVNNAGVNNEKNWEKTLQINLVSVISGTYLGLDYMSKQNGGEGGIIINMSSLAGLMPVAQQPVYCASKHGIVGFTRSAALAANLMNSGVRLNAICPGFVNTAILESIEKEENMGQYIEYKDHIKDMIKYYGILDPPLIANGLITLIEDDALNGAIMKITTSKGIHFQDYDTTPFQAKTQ

[1] = tested on: A549 cell-PMN costimulation; assay: Eicosanoid formation in A549 cell-PMN coincubations; assay type: cell-based, human; conditions: A549 cells exposed 20 min before addition of PMN
Method: In coincubation experiments, confluent A549 cells were exposed to IL-1β (1 ng/ml, 24 h), washed in HBSS and treated with vehicle alone or ASA for 20 min and arachidonic acid ([…] for 60 seconds at 37° C. Coincubations were performed by adding PMN to A549 cell monolayers followed by costimulation with ionophore A23187 (5 μM) in 4 ml of HBSS for 30 min at 37° C.
For analysis of LXs (including LXs and 15-epi-LXs) from A549 cell-PMN, coincubations were carried out using either a Waters (Bondapak C18 ([…]) column eluted with an isocratic mobile phase MeOH/H2O/acetic acid (60:40:0.01; v/v/v) with a flow rate of 0.6 ml/min or an Altex Ultrasphere ODS column (5 μm, 10 ×25 cm) eluted with MeOH/H2O/acetic acid (65:35:0.01; v/v/v) at a flow of 3 ml/min. Peptidoleukotrienes (LTC4 and LTD4) eluted in the MeOH fractions from Sep-Pak cartridge extractions were resolved with a Beckman Ultrasphere-ODS column eluted with MeOH/H2O/acetic acid (65:35:0.01; v/v/v), pH 5.7, at 1 ml/min. […] The material beneath peaks absorbing at 300 nm were individually collected after RP-HPLC and analyzed by gas chromatography-mass spectrometry (GC-MS) employing a Hewlett-Packard 5890 GC series II equipped with a 5971A mass-selective quadrapole detector as in Clària, J. and Serhan, C. […]

A549 cells = assay: 15-HETE generation by IL-1β-treated A549 cells; assay type: cell-based, human
Method: FIG. 3 is a graph showing the relative chiralities of 15-HETE triggered by ASA. A549 cells (10^7 cells per flask) were exposed to IL-1β (1 ng/ml) for 24 h, treated with vehicle (0.1% vol/vol ethanol) (□) or ASA (▪) for 20 min and then incubated (30 min, 37° C.) in HBSS containing arachidonic acid (20 μM) and A23187 (5 μM). Products were chromatographed by RP-HPLC (as in FIG. 1B) and the region containing 15-HETE was collected, extracted with chloroform and treated with diazomethane. Chiral analysis was performed with a Bakerbond DNBPG (see Methods for details). Results are representative of two separate experiments showing similar results.
In incubations involving permeabilized A549 cells (prepared by a rapid freeze-thaw cycle), IL-1β-treated (1 ng/ml, 24 h) A549 cells (1.5×10^6 cells/ml) were pretreated for 20 min with either vehicle (0.1% EtOH), ASA (500 (M; used throughout), 5 (M 17-ODYA, an inhibitor of cytochrome P450, (Muerhoff A. S., et al. (1989) Prostaglandin and fatty acid ω and (ω-1)-oxidation in rabbit lung: acetylenic fatty acid mechanism-based inactivators as specific inhibitors. J Biol.Chem. 244: 749-756.), or […] Rev 5901 isomer, a 5-LO inhibitor, subjected to two cycles of rapid freezing in a dry ice-acetone bath and thawing to room temperature (full cycle <20 min), and incubated with arachidonic acid ([…] for 20 min at 37° C. in 4 ml of DPBS^2+. In experiments involving radiolabeled arachidonic acid, incubations were initiated with the addition of [^3H]-arachidonic acid (0.25 (Ci/ml) plus unlabeled arachidonic acid ([…] for 20 min at 37° C.
For time-course experiments involving the generation of 15-HETE from endogenous sources (see FIG. 2B), intact A549 cells were exposed to IL-1β (1 ng/ml) for up to 48 h and then treated with vehicle (containing 0.1% EtOH) or ASA for 20 min followed by addition of ionophore A23187 (5 μM) in 4 ml of HBSS for 30 min at 37° C.
The monohydroxy eicosanoids (i. e. 5-, 12- and 15-HETE) from A549 cells were analyzed using a Ultrasphere-ODS column (5 μm, 4.6 mm×25 cm) (Beckman Instruments, Fullerton, Calif.) was eluted with MeOH/H2O/acetic acid (65:35:0.01; v/v/v) as phase one (t0-20 min), and a linear gradient with MeOH/acetic acid (99.9:0.1, v/v) as phase two (20-45 min) at a flow rate of 1.0 ml/min. The R- and S-enantiomers of 15-HETE were resolved and identified using a chiral HPLC system similar to that reported by Hawkins et al. (1988). […] When indicated, generation of 15-HETE from endogenous sources was monitored by radioimmunoassay (RIA). […]

HUVEC = assay: 3H-LTB4 binding to HUVEC; design: species or system human; conditions: 3H-LTB4, n=3
Method: Cell cultures and differentiation. HL-60 cells were seeded in RPMI medium supplemented with 100 U/ml penicillin, 100 μg/ml streptomycin, and 10% fetal calf serum (Hyclone, Logan, Utah), incubated at 37° C. with 5% CO2 atmosphere in 250 ml flasks. Individual flasks containing ˜[…] next received dimethyl sulfoxide (DMSO) (1.12% v/v, 120 h) or retinoic acid (RA) (1 μM, 120 h) or phorbol myristate acetate (PMA) (20 nM, 48 h). Before performing binding assays, cells were washed twice in phosphate buffered saline (PBS), Ca^2+- and Mg^2+-free, enumerated and suspended at 20×10^6 cells/ml in Tris buffer (10 mM), pH 7.4 (Fiore, S. et al.(1992) J. Biol. Chem. 267:16168). Nitro blue tetrazolium reduction was performed to monitor induction of polymorphonuclear phenotype as in (Imaizumi, M. and Breitman, T. R. (1986) Blood 67:1273), and cell adherence was determined for induction of macrophage-like phenotype (Collins, S. J. (1987) Blood 70:1273). […]
Ligand binding. ^3H-LXA4 and ^3H-LTB4 binding was performed essentially as in Fiore, S. et al.(1992) J. Biol. Chem. 267:16168. […] The incubations were rapidly centrifuged (60 sec, 12,000 g) on silicon oil (d=1.028), and cell-associated radioactivity was determined by liquid scintillation counting (Wallac 1409, Pharmacia, Piscataway, N.J.). […]

[2] = target: T2, LXA4 specific binding sites of differentiated HL-60 cells (Homo sapiens, UniProt P25090); assay: 3H-LXA4 specific binding to differentiated HL-60 cells; conditions: competition, competitor 300 nM where printed
T2 construct: endogenous in cells; host or cells: HL-60 cells differentiated with DMSO, retinoic acid or PMA; intact cells
T2 sequence (P25090 1-351): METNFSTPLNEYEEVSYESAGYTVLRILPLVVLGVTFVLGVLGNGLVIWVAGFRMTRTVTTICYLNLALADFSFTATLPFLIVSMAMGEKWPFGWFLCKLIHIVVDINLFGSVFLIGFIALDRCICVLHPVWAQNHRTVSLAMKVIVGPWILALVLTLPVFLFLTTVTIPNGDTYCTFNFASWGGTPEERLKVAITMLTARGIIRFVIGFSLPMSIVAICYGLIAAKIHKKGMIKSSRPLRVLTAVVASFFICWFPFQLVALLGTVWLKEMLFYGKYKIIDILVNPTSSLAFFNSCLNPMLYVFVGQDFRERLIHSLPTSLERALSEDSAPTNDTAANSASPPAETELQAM

[3] = pretreatment 20 min, 37° C., chiral HPLC

Compound: CCCCC[C@H](O)/C=C/C=C\C/C=C\C/C=C\CCCC(=O)O [15-HETE, 15-hydroxyeicosatetraenoic acid]
substrate efficiency compared to PGE2 (15-PGDH): 92%

Compound: CC(=O)Oc1ccccc1C(=O)O [ASA, acetylsalicylic acid]
formation of LXs [1]: increase in the formation of LXs
formation of pLTs (LTC4 plus LTD4) [1]: decrease in pLTs
effect on formation of 15-HETE (A549 cells; permeabilized IL-1β-treated A549 cells, arachidonic acid 20 μM): marked increase
formation of 15S-HETE (A549 cells; [3]): remained unaltered
increase in the amounts of 15R-HETE (A549 cells; [3]): 3 fold

specific binding to HUVEC (HUVEC): did not specifically bind
Compound: CCCCC/C=C\C[C@@H](O)/C=C/C=C/C=C\[C@@H](O)CCCC(=O)O [LTB4, leukotriene B4]
displacement of 3H-LXA4 specific binding [2]: Neither LXB4, LTB4, nor trihydroxyheptanoic acid (methyl ester) (300 nM) were able to displace
